In assay [1] the test system is T24 cells. Nature of the assay: In vitro binding of [^68Ga]AJ647 to T24 cells. Type of assay: cell-based. As to conditions: T24 (low Nectin-4); 1 × 10^6 cells, ~1 μCi, 30 min, 4°C; means ± SD, n = 4. The procedure:
In vitro binding of [^68Ga]AJ647 to T24, SCaBER, RT112, UC9, UC14, and HT1376 cells was determined by incubating 1 × 10^6 cells with ~1 μCi of [^68Ga]AJ647 for 30 min at 4°C. After incubation, cells were washed three times with ice-cold PBS containing 0.1% Tween 20 and counted on an automated gamma counter. All cell radioactivity uptake studies were performed in quadruplicate for each cell line and repeated three times.

Assay [2] has as its system T24 cells. Nature of the assay: [^68Ga]AJ647 binding after EV preincubation, T24 cells. Type of assay: cell-based. As to conditions: T24 (Nectin-4-negative); EV 60 nM preincubated 30 min. The procedure:
An FITC analog of EV was made using the manufacturer’s recommended protocol (Thermo Fisher Scientific, no. 46409). Briefly, 1 mg of EV was incubated with FITC-NHS ester at a 5:1 molar ratio overnight at 4°C at 0.1 M borate buffer (pH 8.0). Excess unbound FITC-NHS ester was washed off by performing buffer exchange with 1× PBS using three rounds of ultracentrifugation at 4000g for 10 min (3-kDa molecular weight cutoff filter, Amicon, no. UFC900308). The effect of nonradioactive AJ647 on EV binding to Nectin-4 was assessed by incubating HT1376 cells at varying concentrations (5.4 μM to 0.01 nM using a serial dilution) of AJ647 for 30 min at 4°C. Unbound AJ647 was washed off using 3 ml of cold PBS. Cells were incubated with EV-FITC for 30 min at 4°C. Excess EV-FITC was washed off using 3 ml of cold PBS. The mean fluorescence intensity was measured using a flow cytometer, and data are reported as the percentage of 0 nM AJ647. For the effect of EV on [^68Ga]AJ647 binding, EV was used at concentrations of 90 to 0.04 nM using serial dilutions for 30 min at 4°C. Unbound EV was washed off using cold PBS. Then, cells were incubated with 1 μCi of [^68Ga]AJ647 for an additional 30 min. Excess [^68Ga]AJ647 was washed off three times with cold PBS. Samples were read in an automated gamma counter, and data are reported as the percentage of 1-μCi standard counts.

For another assay, the system named is HT1376 tumors. Nature of the assay: EV effect on Nectin-4 temporal PD, [^68Ga]AJ647 PET. Type of assay: in vivo, NSG mice. The procedure: Mice with tumor volumes of ~100 to 150 mm^3 were injected with ~200 μCi [7.4 megabecquerels (MBq)] of [^68Ga]AJ647 in […] of 5% ethanol in saline intravenously and anesthetized under 2.5% isoflurane. PET-computed tomography (CT) images were acquired at 60 min after radiotracer injection at 5 min per bed in an ARGUS small-animal PET/CT scanner (Sedecal, Madrid, Spain) as described previously (n = 3, unless otherwise noted). PET-MR images were acquired on a simultaneous 7T Bruker PET-MR scanner. Dynamic imaging was conducted to evaluate the PK of [^68Ga]AJ647. [^68Ga]AJ647 was injected (with the help of a catheter) after mice were anesthetized under 2.5% isoflurane on the equipment bed. All PET data were reconstructed using the two-dimensional (2D) ordered subset expectation maximization algorithm and corrected for radioactive decay and dead times. The SUV values were calculated by finding %IA on the basis of a calibration factor obtained from a known radioactive quantity and then normalizing by mice weight. Amide software was used to derive SUV values by drawing the region of interest to closely fit tumors. In particular, MR images were used to identify tumor boundaries manually; these boundaries were transferred to co-registered PET images to derive SUVs. This process was repeated for each mouse individually in a blinded fashion. For the change in accessible Nectin-4 following EV treatment, ΔSUV was calculated by subtracting baseline (pre-treatment) uptake from posttherapy uptake of [^68Ga]AJ647. TE was quantified by normalizing this change by initial SUV in the same subject controls. Image fusion, visualization, and 3D rendering were accomplished using Amira 2020.3.1 (FEI, Hillsboro, OR). The dose-time PD of Nectin-4 following EV treatment was studied at doses of 6, 9, and 15 mg/kg. Experiments involving PET imaging were performed first. Male NSG mice were inoculated with 4 million HT1376 cells at day 0. On day 23 (average tumor volume, 150 ± 30 mm^3), mice were randomized to receive either saline or a single dose of EV (6, 9, or 15 mg/kg) intravenously (n = 3 for each dose and n = 2 for saline). Mice (n = 2) from each dose group and saline group were imaged on days 1, 3, and 6 following EV treatment. Once PET imaging results were analyzed, ex vivo distribution experiment was performed with n = 16 to 18 for each dose and n = 10 for saline. Treated mice (n = 8 or 9 per dose per time point) along with saline controls (n = 5 per time point) were euthanized on days 1 and 6. Biodistribution studies were performed at 60 min after [^68Ga]AJ647 injection, as described above. PD metrics were defined as follows Accessible Nectin−4=SUVpost/SUVpre∗100 Nectin−4 TE=(SUVpre−SUVpost)/SUVpre∗100

For assay [3] the following is noted: lowest exposure (Cavg) quartile; cited from earlier work. The source says:
Real-time assessment of tumor heterogeneity remains a critical challenge in optimizing targeted therapies. Despite the importance of sensitive assays for real-time insights into drug-tumor interactions, such tools remain limited ([6], [25]). Model-based approaches that integrate nonclinical and clinical data—such as PK and PD parameters—can facilitate efficacy and safety predictions ([26]). However, these models often fail to fully account for the dynamic complexities of tumor heterogeneity and intrinsic factors that affect drug PK/PD, especially in real time. This is particularly true for mac ...

This is an account of results in PMC12778052 (Science Advances, 2026).

Consider `CSCC[C@@H]1NC(=O)[C@@H]2CSCCC(=O)N3CN(CN(C3)C(=O)CCSC[C@H](NC(=O)CCOCCOCCOCCOCCOCCOCCOCCOCCOCCOCCOCCOCCNC(=O)CN3CCN(CC(=O)O)CCN(CC(=O)O)CC3)C(=O)N3CCC[C@H]3C(=O)N[C@@H](Cc3cccc4ccccc34)C(=O)N[C@@H](CC(=O)O)C(=O)N2)C(=O)CCSC[C@@H](C(N)=O)NC(=O)[C@H](Cc2c[nH]c3ccccc23)NC(=O)[C@@H]2C[C@@H](O)CN2C(=O)[C@@H]2CCCN2C(=O)[C@H]([C@@H](C)O)NC(=O)[C@H](CO)NC(=O)[C@H](Cc2c[nH]c3ccccc23)NC(=O)[C@@H](CC(=O)O)NC(=O)[C@H](CCCCNC(=N)N)NC1=O` [[^68Ga]AJ647, metal not drawn], for which the “[^68Ga]AJ647 uptake” value in the assay on T24 cells [1] was 0.2 ± 0.11 %IA.
In the case of enfortumab vedotin [EV], the “effect on [^68Ga]AJ647 binding” value in the assay with T24 cells [2] is recorded as “but not in Nectin-4–negative T24 cells”. In addition, the “Nectin-4 engagement by PET” value with HT1376 tumors (day 1, EV 6, 9 or 15 mg/kg single dose) was “full occupancy of Nectin-4”; in the assay on HT1376 tumors (day 3, EV 6 mg/kg), “increase in [^68Ga]AJ647 uptake”; with HT1376 tumors (day 3, EV 9 and 15 mg/kg), “low tracer uptake”; in the assay with HT1376 tumors (day 6, EV 6 mg/kg), “significant increase in [^68Ga]AJ647 uptake”; with HT1376 tumors (day 6, EV 9 mg/kg), “moderate increase in uptake”; with HT1376 tumors (day 6, EV 15 mg/kg) it was “minimal tracer uptake”. For the same compound, the response rate in assay [3] is reported as 32%.
